{
  "source": "patent US9428460B2",
  "about": "“N-[4-(quinolin-4-yloxy)cyclohexyl(methyl)](hetero)arylcarboxamides as androgen receptor antagonists, production and use thereof as medicinal products” (BAYER PHARMA AKTIENGESELLSCHAFT, priority 2012, dated 2016)",
  "test_system": "LAPC-4 cells",
  "assay": "Proliferation assay with LAPC-4 cells",
  "format": "cell-based",
  "conditions": "Homo sapiens, LAPC4, 168 h; in the presence of 1×10^−9 M R1881, seven days, AlamarBlue; read-out: IC50 LAPC-4 cell proliferation",
  "description": "LAPC-4 cells (Klein et al., Nat Med. 3(4): 402-8, 1997) were plated out at a density of 4000 cells per well of a 96-well cell culture plate in RMPI 1640 medium (F1275, Biochrom AG) that contained activated charcoal-treated calf serum (FCS Serum Gold, PAA Laboratories) at a concentration of 10% (v/v). On the next day the cells were treated with the test substances in concentrations from 1×10^−8 to 1×10^−10 M in the presence of 1×10^−9 M R1881. Cell proliferation was determined seven days later after incubation for 2 hours with AlamarBlue (DAL1100, Invitrogen) (Nakayama et al., J Immunol Methods, 204(2): 205-8, 1997). The fluorescence values obtained were normalized, wherein 100% corresponded to the effect of the unstimulated control (without R1881), and 0% corresponded to the effect of the stimulated control (R1881 plus DMSO instead of test substance). The IC50 value was determined by regression analysis based on a four-parameter equation (minimum, maximum, IC50, Hill coefficient; Y=Max+(Min−Max)/(1+(X/IC50)^Hill)).",
  "data": [
    {"smiles": "N#Cc1cccc2c(O[C@H]3CC[C@H](NC(=O)c4cccc(F)c4)CC3)ccnc12", "note": "[Example 23, N-{trans-4-[(8-cyanoquinolin-4-yl)oxy]cyclohexyl}-3-fluorobenzamide]", "values": [
      {"measurement": "IC50", "value": 86, "unit": "nM"}
    ]}
  ]
}
